Laboratory results taken from patent US20250243219A1, “MACROCYCLIC COMPOUNDS AND USES THEREOF” (Cypralis Limited, priority 2022, published 2025).

Assays:
cyclophilin D = cyclophilin D (Homo sapiens (Human), UniProt P30405); test: Functional peptidyl prolyl isomerase (PPIase) spectrophotometric assay, cyclophilin D; assay type: biochemical; conditions: second value of CypA/D cell; read-out: Ki CypD
Description: (§1) Cyclophilins are enzymes that catalyse the cis-trans isomerisation of peptide bonds to the amino acid proline. This event is important in many biological processes, including protein folding and signal transduction. […] The method to measure this activity and its inhibition is similar to that described by Jankowski (Analytical Biochemistry, 252, 2, 299-307 (1997)). The assay measures the cis to trans isomerisation of a peptide substrate catalysed by a PPlase enzyme using a UV/Vis spectrophotometer. This assay is a manual single cuvette-based assay. A first order rate equation is fitted to the absorbance data to obtain a rate constant. The catalytic rate is calculated from the enzymatic rate minus the background rate. The Ki (the concentration required to produce half maximum inhibition) for an inhibitor is obtained from the rate constant plotted against the inhibitor concentration. Typically, a 6-point dose response curve is obtained from duplicates and a Ki determined. Data are given in Table 5 as Ki [nM] for cyclophilins A and D, expressed in column 2 of Table 5 as Ki (cypA)/Ki (cypD).

SH-SY5Y cells = test: Thapsigargin treated cell death assay in SH-SY5Y cells; assay type: cell-based, human; conditions: compound at 10 μM; positive = protection from cell death, negative = compound toxicity
Description: Thapsigargin raises intracellular free calcium (Ca^2+) by potently inhibiting the endoplasmic reticulum Ca-ATPase, which sequesters Ca^2+ from the cytosol. The increased cytosolic Ca^2+ concentration is buffered by mitochondria by exchanging Ca^2+ for K, leading to depolarisation in the inner mitochondrial membrane and permeability transition.
The thapsigargin treated Jurkat cell death assay is a homogeneous 96 well plate based assay for cell death, instigated by the opening of the mitochondrial permeability transition pore (MPTP). The addition of thapsigargin to Jurkat cells results in an influx of calcium, the increase in intracellular calcium will initially be buffered by the mitochondria, but eventually the increasing calcium concentration will result in the opening of the MPTP, resulting in cell death.
CellTox™ Green is a dye which is unable to enter the cell until cell death leads to the loss of membrane integrity. Once this happens the CellTox™ Green enters the cell, binds to the cell's DNA and emits a fluorescent signal. […] Unless otherwise stated, the assay is typically run using a range of three compound concentrations of 1, 3 and 10 μM in triplicate and is read kinetically over a period of 24 hours. Compounds are added 30 minutes before the addition of thapsigargin. Compound only controls and positive control, cyclosporin A (CsA) (3 and 10 μM) are also included in the assay. Results are typically calculated at the 8 hour time point and the kinetic data is also reported.
The assay is carried out as described for the Jurkat cells but using the SH-SY5Y (human neuroblastoma) cell line instead of Jurkat cells. The results are shown in the fourth column of Table 5 (SY5Y [10 μM]% recovery). Positive numbers indicate protection from cell death, negative numbers indicate compound toxicity.

cyclophilin A = cyclophilin A (Homo sapiens (Human), UniProt P62937); test: Functional peptidyl prolyl isomerase (PPIase) spectrophotometric assay, cyclophilin A; assay type: biochemical; conditions: first value of CypA/D cell
Description: as §1

[1] = tested on: permeabilised HepG2 cells; test: Calcium retention capacity (CRC) assay in permeabilised HepG2 cells (MPTP opening); assay type: cell-based, human; set-up: CRC [10 μM]: unit not given here; conditions: compound at 10 μM; for CRC [10 μM]: digitonin permeabilised HepG2 cells; for CRC [10 μM] (ratio vs CsA): normalised to cyclosporin A, value in brackets
Description: The use of permeabilised cells means that inhibitory compounds that may not normally enter non-permeabilised cells are more likely to be active.
The calcium retention capacity (CRC) is a measure of the capability of mitochondria to retain calcium, primarily in the form of calcium phosphates, in the mitochondrial matrix.
In a CRC assay, the calcium indicator Calcium Green-5N (InVitrogen) is utilized. […] The assay is carried out in HepG2 (human hepatocellular carcinoma) cells which are digitonin permeabilized. Trains of calcium pulses (typically 5 μM additions) are added which results in a sudden increase in fluorescence which is then reduced by mitochondrial buffering. The cells will reach a point at which the calcium addition is no longer buffered, an indication that the MPTP has opened (mitochondrial permeability transition).
The experiment is performed with and without inhibitor. A compound that acts to inhibit the mitochondrial pore opening will result in a greater requirement for calcium to reach the transition point. The results are normalised to a positive control (cyclosporin A) in each experiment. The results are shown in column 3 of Table 5 as CRC [10 μM] (ratio vs CsA). The method of digitonin permeabilised whole cell CRC assay is similar to that used by Chiara et al. (PLoS One, March, 3, 3, e1852 (2008)).

Chain of cyclophilin D (P30405 30-207, species assumed): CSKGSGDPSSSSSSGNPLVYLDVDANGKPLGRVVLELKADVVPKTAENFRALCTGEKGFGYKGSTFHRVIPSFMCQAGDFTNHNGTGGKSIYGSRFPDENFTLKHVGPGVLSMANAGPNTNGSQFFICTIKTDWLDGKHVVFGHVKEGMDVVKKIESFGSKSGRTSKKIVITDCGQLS
Chain of cyclophilin A (P62937 whole entry, species assumed): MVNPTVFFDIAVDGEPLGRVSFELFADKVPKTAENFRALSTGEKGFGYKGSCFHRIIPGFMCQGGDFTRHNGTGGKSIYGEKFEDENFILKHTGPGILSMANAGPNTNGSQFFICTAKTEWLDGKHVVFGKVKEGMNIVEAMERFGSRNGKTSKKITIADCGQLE

Row | SMILES | Ki (cyclophilin D) [nM] | Ki (cyclophilin A) [nM] | SYSY [10 μM] % recovery (SH-SY5Y cells) [%] | CRC [10 μM] [1] | CRC [10 μM] (ratio vs CsA) [1]
1 | C[C@@H]1NC(=O)[C@H](C[C@H]2CCCN(C)C2)OC(=O)C(C)(C)/C=C/c2ccc3ccc(nc3c2)N(C)NC(=O)[C@@H]2CCCN(N2)C1=O [Compound (37)] | 160 | 150 | 41 | 5 | 0.33
2 | C[C@@H]1NC(=O)C(Cc2ccc(N)nc2)OC(=O)C(C)(C)/C=C/c2ccc3ccc(nc3c2)N(C)NC(=O)[C@@H]2CCCN(N2)C1=O (some centres unmarked) [Compound (43)] | 40 | 44 | 10 | 10 | 0.67
3 | C[C@@H]1NC(=O)[C@H](CCl)OC(=O)C(C)(C)/C=C/c2ccc3ccc(nc3c2)N(C)NC(=O)[C@@H]2CCCN(N2)C1=O [Compound (53)] | 28 | 15 | 21 | 25 | 0.83
4 | C[C@@H]1NC(=O)[C@H](CCC(N)=O)OC(=O)C(C)(C)/C=C/c2ccc3ccc(nc3c2)N(C)NC(=O)[C@@H]2CCCN(N2)C1=O [Compound (54)] | 700 | 36 | 10 | 15 | 0.50
5 | C[C@@H]1NC(=O)[C@H](CCCN)OC(=O)C(C)(C)/C=C/c2ccc3ccc(nc3c2)N(C)NC(=O)[C@@H]2CCCN(N2)C1=O [Compound (55)] | 1900 | 110 | 37 | 5 | 0.25
6 | C[C@@H]1NC(=O)[C@H](CC2CCCNC2)OC(=O)C(C)(C)/C=C/c2ccc3ccc(nc3c2)N(C)NC(=O)[C@@H]2CCCN(N2)C1=O (some centres unmarked) [Compound (56)] | 56.6 | 295 | 15 | 8 | 0.36
7 | CC(C)[C@@H]1OC(=O)C(C)(C)/C=C/c2ccc3ccc(nc3c2)N(C)NC(=O)[C@@H]2CCCN(N2)C(=O)[C@H](CCC(=O)Nc2ccccc2)NC1=O [Compound (63)] | 15 | 11 | 48 | 30 | 1.00
8 | CC(C)[C@@H]1OC(=O)C(C)(C)/C=C/c2ccc3ccc(nc3c2)N(C)NC(=O)[C@@H]2CCCN(N2)C(=O)[C@H](CCC(=O)N(C)c2ccccc2)NC1=O [Compound (64)] | 59 | 5.1 | 44 | 25 | 1.00
9 | CC(C)[C@@H]1OC(=O)C(C)(C)/C=C/c2ccc3ccc(nc3c2)N(C)NC(=O)[C@@H]2CCCN(N2)C(=O)[C@H](CCC(=O)NCc2cccnc2)NC1=O [Compound (65)] | 22 | 14 | 51 | 20 | 0.90
10 | CC(C)[C@@H]1OC(=O)C(C)(C)/C=C/c2ccc3ccc(nc3c2)N(C)NC(=O)[C@@H]2CCCN(N2)C(=O)[C@H](CCC(=O)NCC2CCOCC2)NC1=O [Compound (67)] | 26 | 40 | 52 | 25 | 1.00
11 | CC(C)[C@@H]1OC(=O)C(C)(C)/C=C/c2ccc3ccc(nc3c2)N(C)NC(=O)[C@@H]2CCCN(N2)C(=O)[C@H](CCC(=O)N2CCNCC2)NC1=O [Compound (69)] | 41 | 34 | 17 | 20 | 0.80
12 | CC(C)[C@@H]1OC(=O)C(C)(C)/C=C/c2ccc3ccc(nc3c2)N(C)NC(=O)[C@@H]2CCCN(N2)C(=O)[C@H](CCC(=O)N2CCN(C)CC2)NC1=O [Compound (70)] | 53 | 6.7 | 44 | 25 | 1.00
13 | CC(C)[C@@H]1OC(=O)C(C)(C)/C=C/c2ccc3ccc(nc3c2)N(C)NC(=O)[C@@H]2CCCN(N2)C(=O)[C@H](CCC(=O)NC2CCN(C)CC2)NC1=O [Compound (71)] | 16 | 51 | 4 | 18.3 | 0.76

Now those with a lower Ki (cyclophilin D), led by results:

Row | Ki (cyclophilin D) [nM] | Ki (cyclophilin A) [nM] | SMILES | SYSY [10 μM] % recovery (SH-SY5Y cells) [%] | CRC [10 μM] [1] | CRC [10 μM] (ratio vs CsA) [1]
14 | 2.5 | 3 | C[C@@H]1NC(=O)[C@H](Cc2ccc(NS(C)(=O)=O)cc2)OC(=O)C(C)(C)/C=C/c2ccc3ccc(nc3c2)N(C)NC(=O)[C@@H]2CCCN(N2)C1=O [Compound (46)] | 29 | 25 | 1.00
15 | 11 | 26 | C[C@@H]1NC(=O)[C@H](CN2CCNCC2)OC(=O)C(C)(C)/C=C/c2ccc3ccc(nc3c2)N(C)NC(=O)[C@@H]2CCCN(N2)C1=O [Compound (48)] | 46 | 10 | 0.5
16 | 14 | 22 | CC(C)C(=O)Nc1cccc(C[C@@H]2OC(=O)C(C)(C)/C=C/c3ccc4ccc(nc4c3)N(C)NC(=O)[C@@H]3CCCN(N3)C(=O)[C@H](C)NC2=O)c1 [Compound (49)] | 40 | 20 | 1.00
17 | 1.6 | 2.4 | C[C@@H]1NC(=O)[C@H](Cc2cccc(N)c2)OC(=O)C(C)(C)/C=C/c2ccc3ccc(nc3c2)N(C)NC(=O)[C@@H]2CCCN(N2)C1=O [Compound (50)] | 25 | 20 | 1.00
18 | 7.6 | 7.8 | C[C@@H]1NC(=O)[C@H](C[C@@H]2CCCNC2)OC(=O)C(C)(C)/C=C/c2ccc3ccc(nc3c2)N(C)NC(=O)[C@@H]2CCCN(N2)C1=O [Compound (57)] | 48.48 | 15 | 0.75
19 | 9.5 | 1.3 | COc1ccc(C[C@@H]2OC(=O)C(C)(C)/C=C/c3ccc4ccc(nc4c3)N(C)NC(=O)[C@@H]3CCCN(N3)C(=O)[C@H](C)NC2=O)cc1 [Compound (60)] | 37 | 25 | 0.80
20 | 4.25 | 1.85 | CC(C)[C@@H]1OC(=O)C(C)(C)/C=C/c2ccc3ccc(nc3c2)N(C)NC(=O)[C@@H]2CCCN(N2)C(=O)[C@H](CCCCNCc2ccc3ccccc3c2)NC1=O [Compound (61)] | 35 | 20 | 0.78
21 | 6.6 | 3.6 | CC(C)[C@@H]1OC(=O)C(C)(C)/C=C/c2ccc3ccc(nc3c2)N(C)NC(=O)[C@@H]2CCCN(N2)C(=O)[C@H](CCC(=O)N[C@H](C)c2ccccc2)NC1=O [Compound (66)] | 63 | 25 | 0.80
22 | 9.9 | 16 | CC(C)[C@@H]1OC(=O)C(C)(C)/C=C/c2ccc3ccc(nc3c2)N(C)NC(=O)[C@@H]2CCCN(N2)C(=O)[C@H](CCC(=O)NCc2cnn(C)c2)NC1=O [Compound (68)] | 37 | 25 | 0.83
